Source: patent publication US8937167B2 (Washington University, priority 2009, dated 2015)

What follows are compounds tested against FimH (Escherichia coli, UniProt Q1R2J4). Conditions: not given.
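Note: hemagglutination inhibition of guinea pig erythrocytes agglutinated by type 1 piliated uropathogenic E. coli via FimH mannose binding, quantified through serial dilutions of compound.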

Structure (SMILES) | HAI Titer EC>90 [mM]
CNC(=O)c1cncc(-c2ccc(OC3OC(CO)C(O)C(O)C3O)cc2)c1 (stereo not drawn) | 0.0005
CC(=O)Nc1ccccc1OC1OC(CO)C(O)C(O)C1O (stereo not drawn) [Compound 1ZFH95, N-[2-[3,4,5-trihydroxy-6-(hydroxymethyl)tetrahydropyran-2-yl]oxyphenyl]acetamide] | 0.125
COC(=O)c1cccc(OC2OC(CO)C(O)C(O)C2O)c1 (stereo not drawn) [Compound 1ZFH101, methyl 3-[3,4,5-trihydroxy-6-(hydroxymethyl)tetrahydropyran-2-yl]oxybenzoate] | 0.006
O=C(NCCCCOC1OC(CO)C(O)C(O)C1O)c1ccc(C(=O)O)c(-c2c3ccc(=O)cc-3oc3cc(O)ccc23)c1 (stereo not drawn) [Compound 1ZFH134A, 2-(3-hydroxy-6-oxo-xanthen-9-yl)-4-[4-[3,4,5-trihydroxy-6-(hydroxymethyl)tetrahydropyran-2-yl]oxybutylcarbamoyl]benzoic acid] | 0.125
O=C(NCCCCOC1OC(CO)C(O)C(O)C1O)c1ccc(-c2c3ccc(=O)cc-3oc3cc(O)ccc23)c(C(=O)O)c1 (stereo not drawn) [Compound 1ZFH134B, 2-(3-hydroxy-6-oxo-xanthen-9-yl)-5-[4-[3,4,5-trihydroxy-6-(hydroxymethyl)tetrahydropyran-2-yl]oxybutylcarbamoyl]benzoic acid] | 0.125
O=[N+]([O-])c1ccc(COC2OC(CO)C(O)C(O)C2O)cc1 (stereo not drawn) [Compound 1ZFH152, 2-(hydroxymethyl)-6-[(4-nitrophenyl)methoxy]tetrahydropyran-3,4,5-triol] | 0.06
OCC1OC(Oc2ccc3ccccc3c2)C(O)C(O)C1O (stereo not drawn) [Compound 1ZFH185, 2-(hydroxymethyl)-6-(2-naphthyloxy)tetrahydropyran-3,4,5-triol] | 0.006
COC(=O)Cc1cc(OC2OC(CO)C(O)C(O)C2O)ccc1O (stereo not drawn) [Compound 1ZFH187, methyl 2-[2-hydroxy-5-[3,4,5-trihydroxy-6-(hydroxymethyl)tetrahydropyran-2-yl]oxy-phenyl]acetate] | 0.015
O=C(c1ccccc1)c1cccc(OC2OC(CO)C(O)C(O)C2O)c1 (stereo not drawn) [Compound 1ZFH263, phenyl-[3-[3,4,5-trihydroxy-6-(hydroxymethyl)tetrahydropyran-2-yl]oxyphenyl]methanone] | 0.008
COC(=O)c1ccc(-c2cccc(OC3OC(CO)C(O)C(O)C3O)c2)cc1 (stereo not drawn) [Compound 1ZFH265, methyl 4-[3-[3,4,5-trihydroxy-6-(hydroxymethyl)tetrahydropyran-2-yl]oxyphenyl]benzoate] | 0.006
OCC1OC(Oc2cc(C(F)(F)F)cc(C(F)(F)F)c2)C(O)C(O)C1O (stereo not drawn) [Compound 1ZFH274, 2-[3,5-bis(trifluoromethyl)phenoxy]-6-(hydroxymethyl)tetrahydropyran-3,4,5-triol] | 0.032
OCC1OC(Oc2cc(F)c(F)c(F)c2)C(O)C(O)C1O (stereo not drawn) [Compound 1ZFH282, 2-(hydroxymethyl)-6-(3,4,5-trifluorophenoxy)tetrahydropyran-3,4,5-triol] | 0.125
OCC1OC(Oc2ccc(Br)cc2)C(O)C(O)C1O (stereo not drawn) [Compound 2ZFH46, 2-(4-bromophenoxy)-6-(hydroxymethyl)tetrahydropyran-3,4,5-triol] | 0.032
O=[N+]([O-])c1cccc(OC2OC(CO)C(O)C(O)C2O)c1 (stereo not drawn) [Compound 2ZFH100, 2-(hydroxymethyl)-6-(3-nitrophenoxy)tetrahydropyran-3,4,5-triol] | 0.016
N#Cc1ccccc1OC1OC(CO)C(O)C(O)C1O (stereo not drawn) [Compound 2ZFH108, 2-[3,4,5-trihydroxy-6-(hydroxymethyl)tetrahydropyran-2-yl]oxybenzonitrile] | 0.006
Cc1ccc(OC2OC(CO)C(O)C(O)C2O)cc1 (stereo not drawn) [Compound 2ZFH175, 2-(hydroxymethyl)-6-(4-methylphenoxy)tetrahydropyran-3,4,5-triol] | 0.008
COc1ccc(OC2OC(CO)C(O)C(O)C2O)cc1 (stereo not drawn) [Compound 2ZFH176, 2-(hydroxymethyl)-6-(4-methoxyphenoxy)tetrahydropyran-3,4,5-triol] | 0.008
OCC1OC(Oc2ccccc2Cl)C(O)C(O)C1O (stereo not drawn) [Compound 2ZFH180, 2-(2-chlorophenoxy)-6-(hydroxymethyl)tetrahydropyran-3,4,5-triol] | 0.004

Structure (SMILES) | HAI Titer EC>90 [mM]
OCC1OC(Oc2cccc(Cl)c2)C(O)C(O)C1O (stereo not drawn) [Compound 2ZFH181, 2-(3-chlorophenoxy)-6-(hydroxymethyl)tetrahydropyran-3,4,5-triol] | 0.008
O=C(NCCCCCCCCNC(=O)c1cccc(-c2ccc(OC3OC(CO)C(O)C(O)C3O)cc2)c1)c1cccc(-c2ccc(OC3OC(CO)C(O)C(O)C3O)cc2)c1 (stereo not drawn) [Compound 2ZFH234, 3-[4-[3,4,5-trihydroxy-6-(hydroxymethyl)tetrahydropyran-2-yl]oxyphenyl]-N-[8-[[3-[4-[3,4,5-trihydroxy-6-(hydroxymethyl)tetrahydropyran-2-yl]oxyphenyl]benzoyl]amino]octyl]benzamide] | 0.002
COC(=O)c1cccc(-c2ccc(OC3OC(CO)C(O)C(O)C3O)cc2C(=O)OC)c1 (stereo not drawn) [Compound 2ZFH244, methyl 2-(3-methoxycarbonyl-phenyl)-5-[3,4,5-trihydroxy-6-(hydroxymethyl)tetrahydropyran-2-yl]oxy-benzoate] | 0.001
CNC(=O)c1cccc(-c2ccc(OC3OC(CO)C(O)C(O)C3O)cc2C(=O)OC)c1 (stereo not drawn) [Compound 2ZFH265, methyl 2-[3-(methylcarbamoyl)phenyl]-5-[3,4,5-trihydroxy-6-(hydroxymethyl)tetrahydropyran-2-yl]oxy-benzoate] | 0.002
CNC(=O)c1cccc(-c2ccc(OC3OC(CO)C(O)C(O)C3O)cc2C(=O)NC)c1 (stereo not drawn) [Compound 2ZFH266, N-methyl-2-[3-(methylcarbamoyl)phenyl]-5-[3,4,5-trihydroxy-6-(hydroxymethyl)tetrahydropyran-2-yl]oxy-benzamide] | 0.012
COC(=O)c1cc2cc(OC3OC(CO)C(O)C(O)C3O)ccc2s1 (stereo not drawn) [Compound 2ZFH297, methyl 5-[3,4,5-trihydroxy-6-(hydroxymethyl)tetrahydropyran-2-yl]oxybenzothiophene-2-carboxylate] | 0.002
COC(=O)c1cc2ccc(OC3OC(CO)C(O)C(O)C3O)cc2s1 (stereo not drawn) [Compound 2ZFH304, methyl 6-[3,4,5-trihydroxy-6-(hydroxymethyl)tetrahydropyran-2-yl]oxybenzothiophene-2-carboxylate] | 0.002
OCc1cccc(-c2ccc(OC3OC(CO)C(O)C(O)C3O)cc2)c1 (stereo not drawn) [Compound 3ZFH18, 2-(hydroxymethyl)-6-[4-[3-(hydroxymethyl)phenyl]phenoxy]tetrahydropyran-3,4,5-triol] | 0.003
OCc1ccc(-c2ccc(OC3OC(CO)C(O)C(O)C3O)cc2)cc1 (stereo not drawn) [Compound 3ZFH24, 2-(hydroxymethyl)-6-[4-[4-(hydroxymethyl)phenyl]phenoxy]tetrahydropyran-3,4,5-triol] | 0.006
OCC1OC(Oc2ccc(-c3cccc(O)c3)cc2)C(O)C(O)C1O (stereo not drawn) [Compound 3ZFH44, 2-(hydroxymethyl)-6-[4-(3-hydroxyphenyl)phenoxy]tetrahydropyran-3,4,5-triol] | 0.004
N#Cc1ccccc1-c1ccc(OC2OC(CO)C(O)C(O)C2O)cc1 (stereo not drawn) [Compound 3ZFH64, 2-[4-[3,4,5-trihydroxy-6-(hydroxymethyl)tetrahydropyran-2-yl]oxyphenyl]benzonitrile] | 0.002
NC(=O)c1ccccc1-c1ccc(OC2OC(CO)C(O)C(O)C2O)cc1 (stereo not drawn) [Compound 3ZFH66, 2-[4-[3,4,5-trihydroxy-6-(hydroxymethyl)tetrahydropyran-2-yl]oxyphenyl]benzamide] | 0.006
N#Cc1cccc(-c2ccc(OC3OC(CO)C(O)C(O)C3O)cc2)c1 (stereo not drawn) [Compound 3ZFH68, 3-[4-[3,4,5-trihydroxy-6-(hydroxymethyl)tetrahydropyran-2-yl]oxyphenyl]benzonitrile] | 0.001
N#Cc1ccc(-c2ccc(OC3OC(CO)C(O)C(O)C3O)cc2)cc1 (stereo not drawn) [Compound 3ZFH70, 4-[4-[3,4,5-trihydroxy-6-(hydroxymethyl)tetrahydropyran-2-yl]oxyphenyl]benzonitrile] | 0.008
O=[N+]([O-])c1ccc(-c2ccc(OC3OC(CO)C(O)C(O)C3O)cc2)cc1 (stereo not drawn) [Compound 3ZFH72, 2-(hydroxymethyl)-6-[4-(4-nitrophenyl)phenoxy]tetrahydropyran-3,4,5-triol] | 0.002
OCC1OC(Oc2ccc(-c3cccnc3)cc2)C(O)C(O)C1O (stereo not drawn) [Compound 3ZFH93, 2-(hydroxymethyl)-6-[4-(3-pyridyl)phenoxy]tetrahydropyran-3,4,5-triol] | 0.002
OCC1OC(Oc2ccc(-c3ccncc3)cc2)C(O)C(O)C1O (stereo not drawn) [Compound 3ZFH96, 2-(hydroxymethyl)-6-[4-(4-pyridyl)phenoxy]tetrahydropyran-3,4,5-triol] | 0.002

Same assay, conditions: Table 21

Structure (SMILES) | HAI Titer EC>50 [µM]
COC(=O)c1cccc(-c2ccc(OC3OC(CO)C(O)C(O)C3O)cc2)c1 (stereo not drawn) [Compound 2ZFH238] | >2500

Same assay, conditions: Table 21; ZFH/JWJ codes

Structure (SMILES) | HAI Titer EC>50 [µM]
COC(=O)COC1OC(CO)C(O)C(O)C1O (stereo not drawn) [Compound 1ZFH74] | 500.000
O=C(NCCCCOC1OC(CO)C(O)C(O)C1O)c1ccc(-c2c3ccc(=O)cc-3oc3cc(O)ccc23)c(C(=O)O)c1 (stereo not drawn) [Compound 1ZFH134] | 125.000

Same assay, conditions: mM

Structure (SMILES) | HAI Titer EC>90 [mM]
NC1C(O)C(CO)OC(OCc2ccccc2)C1O [Benzyl 3-amino-3-deoxy-a-D-mannoside, reference compound] | >1
